Assay results: patent publication US9714234B2, “Carbazole carboxamide compounds” (Bristol-Myers Squibb Company, priority 2013, dated 2017)

What was measured:
[1] = molecular target: Jak2 tyrosine kinase (Homo sapiens (Human), UniProt O60674); assay: Jak2 Tyrosine Kinase Assay; format: biochemical; conditions: for IC50: Jak2 1 nM, ATP 30 μM; for Ratio of Jak2/Btk IC50 values: selectivity for Btk over Jak2, larger value = more selective for Btk
[2] = molecular target: human recombinant Btk (Homo sapiens (Human), UniProt Q06187); assay: Human Recombinant Btk Enzyme Assay; format: biochemical; conditions: human recombinant Btk 1 nM, ATP 20 μM
[3] = tested on: CD69 expression on B cells in human whole blood; assay: Whole Blood Assays of BCR-Stimulated CD69 Expression on B Cells; format: cell-based; conditions: anti-human IgM + IL-4 stimulation, 18 h at 37° C.

Chain of Jak2 tyrosine kinase (O60674 whole entry): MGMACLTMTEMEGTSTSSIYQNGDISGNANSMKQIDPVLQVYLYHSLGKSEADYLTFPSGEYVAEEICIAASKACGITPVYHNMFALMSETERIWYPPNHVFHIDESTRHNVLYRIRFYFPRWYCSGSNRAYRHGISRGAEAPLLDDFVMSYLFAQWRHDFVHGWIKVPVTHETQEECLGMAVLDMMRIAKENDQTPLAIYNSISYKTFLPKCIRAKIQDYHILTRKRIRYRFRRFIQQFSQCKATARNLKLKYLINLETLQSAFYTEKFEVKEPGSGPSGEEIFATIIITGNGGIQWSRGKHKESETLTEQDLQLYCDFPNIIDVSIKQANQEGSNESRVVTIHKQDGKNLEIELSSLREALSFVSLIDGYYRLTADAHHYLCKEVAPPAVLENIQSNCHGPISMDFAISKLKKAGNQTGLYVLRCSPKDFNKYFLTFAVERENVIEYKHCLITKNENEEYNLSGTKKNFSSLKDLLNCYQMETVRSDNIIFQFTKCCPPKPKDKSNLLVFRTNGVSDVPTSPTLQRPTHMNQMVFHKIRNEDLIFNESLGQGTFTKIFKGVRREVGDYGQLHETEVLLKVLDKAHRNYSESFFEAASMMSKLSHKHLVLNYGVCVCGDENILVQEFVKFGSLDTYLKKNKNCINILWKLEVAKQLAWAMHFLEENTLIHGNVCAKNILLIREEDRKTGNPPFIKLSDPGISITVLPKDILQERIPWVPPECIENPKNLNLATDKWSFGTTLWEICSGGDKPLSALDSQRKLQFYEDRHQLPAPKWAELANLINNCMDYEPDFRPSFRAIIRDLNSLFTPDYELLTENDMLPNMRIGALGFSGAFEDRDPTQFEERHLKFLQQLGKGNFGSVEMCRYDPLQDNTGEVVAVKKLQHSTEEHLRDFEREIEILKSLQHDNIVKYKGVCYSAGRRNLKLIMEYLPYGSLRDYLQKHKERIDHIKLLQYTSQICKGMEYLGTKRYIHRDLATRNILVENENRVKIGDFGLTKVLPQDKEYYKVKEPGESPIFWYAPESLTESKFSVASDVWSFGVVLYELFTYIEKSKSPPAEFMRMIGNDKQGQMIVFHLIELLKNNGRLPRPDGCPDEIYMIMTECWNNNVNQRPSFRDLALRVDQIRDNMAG
Chain of human recombinant Btk (Q06187 whole entry): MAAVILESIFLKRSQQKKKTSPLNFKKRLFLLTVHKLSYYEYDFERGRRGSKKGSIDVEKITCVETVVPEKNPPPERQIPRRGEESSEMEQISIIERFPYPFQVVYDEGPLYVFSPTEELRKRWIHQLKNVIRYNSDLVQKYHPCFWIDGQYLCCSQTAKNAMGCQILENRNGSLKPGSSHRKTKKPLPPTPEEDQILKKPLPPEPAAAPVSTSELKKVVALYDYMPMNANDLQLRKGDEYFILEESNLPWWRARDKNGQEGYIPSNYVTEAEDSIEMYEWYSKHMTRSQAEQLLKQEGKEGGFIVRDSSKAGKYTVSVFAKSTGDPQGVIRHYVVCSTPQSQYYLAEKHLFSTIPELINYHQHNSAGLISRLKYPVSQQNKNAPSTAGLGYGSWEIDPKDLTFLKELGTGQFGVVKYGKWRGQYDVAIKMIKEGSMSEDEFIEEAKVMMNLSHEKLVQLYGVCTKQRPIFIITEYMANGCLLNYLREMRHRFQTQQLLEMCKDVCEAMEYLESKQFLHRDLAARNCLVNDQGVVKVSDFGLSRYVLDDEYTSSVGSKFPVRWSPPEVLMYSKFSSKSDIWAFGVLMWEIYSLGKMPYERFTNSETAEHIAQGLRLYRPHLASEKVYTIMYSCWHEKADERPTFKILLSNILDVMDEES

IC50 [1] [nM] | Ratio of Jak2/Btk IC50 values [1] | IC50 [2] [nM] | IC50 ([3]; B-cell) [nM] | IC50 ([3]; Homo sapiens, B-cell, 18 h) [nM] | IC50 [3] [nM] | Compound
2200 | 1000 | 2.1 | 220 |  |  | Cc1c(-c2ccc(C(N)=O)c3[nH]c4cc(NC(=O)C(C)(C)C)ccc4c23)cccc1-n1c(=O)cc2c(Cl)cccn2c1=O [Example 16, 4-(3-(5-Chloro-1,3-dioxo-1H-pyrido[1,2-c]pyrimidin-2(3H)-yl)-2-methylphenyl)-7-pivalamido-9H-carbazole-1-carboxamide]
1900 | 1100 | 1.7 | 110 |  |  | COCc1ccc2c(c1)[nH]c1c(C(N)=O)ccc(-c3cccc(-n4c(=O)cc5c(Cl)cccn5c4=O)c3C)c12 [Example 17, 4-(3-(5-Chloro-1,3-dioxo-1H-pyrido[1,2-c]pyrimidin-2(3H)-yl)-2-methylphenyl)-7-(methoxymethyl)-9H-carbazole-1-carboxamide]
740 | 320 | 2.3 | 130 |  |  | COCc1ccc2c(c1)[nH]c1c(C(N)=O)ccc(-c3cccc(-n4c(=O)cc5c(F)cccn5c4=O)c3C)c12 [Example 18, 4-(3-(5-Fluoro-1,3-dioxo-1H-pyrido[1,2-c]pyrimidin-2(3H)-yl)-2-methylphenyl)-7-(methoxymethyl)-9H-carbazole-1-carboxamide]
1900 | 1200 | 1.6 | 140 |  |  | Cc1c(-c2ccc(C(N)=O)c3[nH]c4cc(C(C)(C)O)ccc4c23)cccc1-n1c(=O)c(F)c2ccccn2c1=O [Example 19, 4-(3-(4-Fluoro-1,3-dioxo-1H-pyrido[1,2-c]pyrimidin-2(3H)-yl)-2-methylphenyl)-7-(2-hydroxypropan-2-yl)-9H-carbazole-1-carboxamide]
570 | 360 | 1.6 | 130 |  |  | Cc1c(-c2ccc(C(N)=O)c3[nH]c4cc(C(C)(C)O)ccc4c23)cccc1-n1c(=O)cc2sccn2c1=O [Example 20, 4-(3-(5,7-Dioxo-5H-thiazolo[3,2-c]pyrimidin-6(7H)-yl)-2-methylphenyl)-7-(2-hydroxypropan-2-yl)-9H-carbazole-1-carboxamide]
960 | 1000 | 0.93 |  | 75 |  | Cc1c(-c2ccc(C(N)=O)c3[nH]c4cc(C(C)(C)O)ccc4c23)cccc1-n1c(=O)cc2c(F)cccn2c1=O [Example 21, 4-(3-(5-Fluoro-1,3-dioxo-1H-pyrido[1,2-c]pyrimidin-2(3H)-yl)-2-methylphenyl)-7-(2-hydroxypropan-2-yl)-9H-carbazole-1-carboxamide]
880 | 520 | 1.7 |  |  | 91 | Cc1c(-c2ccc(C(N)=O)c3[nH]c4cc(C(C)(C)O)ccc4c23)cccc1-n1c(=O)cc2c(F)cccn2c1=O [Example 22, 4-(3-(5-Fluoro-1,3-dioxo-1H-pyrido[1,2-c]pyrimidin-2(3H)-yl)-2-methylphenyl)-7-(2-hydroxypropan-2-yl)-9H-carbazole-1-carboxamide]
1000 | 830 | 1.2 |  |  | 79 | Cc1c(-c2ccc(C(N)=O)c3[nH]c4cc(C(C)(C)O)ccc4c23)cccc1-n1c(=O)cc2c(F)cccn2c1=O [Example 23, 4-(3-(5-Fluoro-1,3-dioxo-1H-pyrido[1,2-c]pyrimidin-2(3H)-yl)-2-methylphenyl)-7-(2-hydroxypropan-2-yl)-9H-carbazole-1-carboxamide]
800 | 530 | 1.5 | 87 |  |  | Cc1c(-c2ccc(C(N)=O)c3[nH]c4cc(CO)ccc4c23)cccc1-n1c(=O)cc2c(F)cccn2c1=O [Example 28, 4-(3-(5-fluoro-1,3-dioxo-1H-pyrido[1,2-c]pyrimidin-2(3H)-yl)-2-methylphenyl)-7-(hydroxymethyl)-9H-carbazole-1-carboxamide]
430 | 360 | 1.2 | 130 |  |  | CC(=O)NCc1ccc2c(c1)[nH]c1c(C(N)=O)ccc(-c3cccc(-n4c(=O)cc5c(F)cccn5c4=O)c3C)c12 [Example 30, 7-(acetamidomethyl)-4-(3-(5-fluoro-1,3-dioxo-1H-pyrido[1,2-c]pyrimidin-2(3H)-yl)-2-methylphenyl)-9H-carbazole-1-carboxamide]
226 | 540 | 0.4 | 250 |  |  | Cc1c(-c2ccc(C(N)=O)c3[nH]c4c(F)c(C(C)(C)O)ccc4c23)cccc1-n1c(=O)c2cccc(F)c2n(C)c1=O [Example 33, 8-fluoro-4-(3-(8-fluoro-1-methyl-2,4-dioxo-1,2-dihydroquinazolin-3(4H)-yl)-2-methylphenyl)-7-(2-hydroxypropan-2-yl)-9H-carbazole-1-carboxamide]
